# Reference: the supplement of paper PMC10307832
# Legend:
# Assay in all cases: relative viability (nuclei count vs DMSO), 5 days (fraction); higher = more cells survive
# CAP-232 = compound: C[C@H]([C@@H](C(=O)N)NC(=O)[C@@H]1CSSC[C@@H](C(=O)N[C@H](C(=O)N[C@@H](C(=O)N[C@H](C(=O)N1)CCCCN)CC2=CNC3=CC=CC=C32)CC4=CC=C(C=C4)O)NC(=O)[C@@H](CC5=CC=CC=C5)N)O [CAP-232]
# Method in brief: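 Only plates meeting two conditions passed: control CV below 25% and at least one doubling. Lung cancer cell lines, kept overnight at 37 °C in 1536-well plates, were pinned with five library-drug doses (not always all listed) √10 apart on vehicle-anchored plates and grown 5 days without medium change. A one-step fix, permeabilisation and Hoechst stain preceded 4× imaging and MetaXpress nuclear counting. Viability equals treated-well nuclei divided by vehicle-well nuclei, as the median over plates.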
# CAP-232 + Navitoclax = compound: C[C@H]([C@@H](C(=O)N)NC(=O)[C@@H]1CSSC[C@@H](C(=O)N[C@H](C(=O)N[C@@H](C(=O)N[C@H](C(=O)N1)CCCCN)CC2=CNC3=CC=CC=C32)CC4=CC=C(C=C4)O)NC(=O)[C@@H](CC5=CC=CC=C5)N)O [CAP-232] + CC1(C)CCC(c2ccc(Cl)cc2)=C(CN2CCN(c3ccc(C(=O)NS(=O)(=O)c4ccc(N[C@H](CCN5CCOCC5)CSc5ccccc5)c(S(=O)(=O)C(F)(F)F)c4)cc3)CC2)C1 [Navitoclax] (partner 0.5 µM)
# Method in brief: (§1)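 Medians of duplicate plates are given as relative viability. That measure is the nuclei count in treated wells divided by the count in vehicle wells. Counts were taken on 4× images of lung cancer cell lines in 1536-well plates, 5 days after pin-tool dosing the day after seeding with one drug alone or a fixed anchor-drug dose plus five library-drug doses (not always all listed) in √10 steps.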
# CAP-232 + OSI-027 = compound: C[C@H]([C@@H](C(=O)N)NC(=O)[C@@H]1CSSC[C@@H](C(=O)N[C@H](C(=O)N[C@@H](C(=O)N[C@H](C(=O)N1)CCCCN)CC2=CNC3=CC=CC=C32)CC4=CC=C(C=C4)O)NC(=O)[C@@H](CC5=CC=CC=C5)N)O [CAP-232] + COc1cccc2cc(-c3nc([C@H]4CC[C@H](C(=O)O)CC4)n4ncnc(N)c34)[nH]c12 [OSI-027] (partner 0.5 µM)
# Method in brief: as §1
# CAP-232 + Pictilisib = compound: C[C@H]([C@@H](C(=O)N)NC(=O)[C@@H]1CSSC[C@@H](C(=O)N[C@H](C(=O)N[C@@H](C(=O)N[C@H](C(=O)N1)CCCCN)CC2=CNC3=CC=CC=C32)CC4=CC=C(C=C4)O)NC(=O)[C@@H](CC5=CC=CC=C5)N)O [CAP-232] + CS(=O)(=O)N1CCN(Cc2cc3nc(-c4cccc5[nH]ncc45)nc(N4CCOCC4)c3s2)CC1 [Pictilisib] (partner 1 µM)
# Method in brief: as §1
# CAP-232 + Decitabine = compound: C[C@H]([C@@H](C(=O)N)NC(=O)[C@@H]1CSSC[C@@H](C(=O)N[C@H](C(=O)N[C@@H](C(=O)N[C@H](C(=O)N1)CCCCN)CC2=CNC3=CC=CC=C32)CC4=CC=C(C=C4)O)NC(=O)[C@@H](CC5=CC=CC=C5)N)O [CAP-232] + Nc1ncn([C@H]2C[C@H](O)[C@@H](CO)O2)c(=O)n1 [Decitabine] (partner 2 µM)
# Method in brief: as §1
Cell Line,relative viability (CAP-232; 0.4 µM),relative viability (CAP-232; 1.265 µM),relative viability (CAP-232; 4 µM),relative viability (CAP-232; 12.65 µM),relative viability (CAP-232 + Navitoclax; first compound 0.4 µM),relative viability (CAP-232 + Navitoclax; first compound 1.265 µM),relative viability (CAP-232 + Navitoclax; first compound 4 µM),relative viability (CAP-232 + Navitoclax; first compound 12.65 µM),relative viability (CAP-232 + OSI-027; first compound 0.4 µM),relative viability (CAP-232 + OSI-027; first compound 1.265 µM),relative viability (CAP-232 + OSI-027; first compound 4 µM),relative viability (CAP-232 + OSI-027; first compound 12.65 µM),relative viability (CAP-232 + Pictilisib; first compound 0.4 µM),relative viability (CAP-232 + Pictilisib; first compound 1.265 µM),relative viability (CAP-232 + Pictilisib; first compound 4 µM),relative viability (CAP-232 + Pictilisib; first compound 12.65 µM),relative viability (CAP-232 + Decitabine; first compound 0.4 µM),relative viability (CAP-232 + Decitabine; first compound 1.265 µM),relative viability (CAP-232 + Decitabine; first compound 4 µM),relative viability (CAP-232 + Decitabine; first compound 12.65 µM)
NCI-H2009,1.06,0.998,1,0.932,1.15,1.14,1.13,1.04,0.667,0.585,0.719,0.358,0.711,0.728,0.88,0.478,0.397,0.391,0.341,0.33
NCI-H2023,0.998,0.883,1.07,0.329,1.15,1,1.06,0.579,0.429,0.359,0.447,0.124,0.253,0.231,0.271,0.133,0.242,0.2,0.239,0.153
NCI-H2085,1.03,1.03,0.997,0.945,1.18,1.06,1.15,1.15,0.786,0.726,0.934,0.594,0.475,0.421,0.355,0.538,0.56,0.542,0.511,0.545
NCI-H2087,1.02,0.936,1.08,0.788,1.19,1.16,1.02,0.616,0.444,0.489,0.596,0.41,0.791,0.983,0.929,0.484,0.265,0.261,0.276,0.238
NCI-H2126,1.05,0.985,1.1,0.991,0.864,0.804,0.843,0.851,0.743,0.76,0.846,0.648,0.501,0.468,0.482,0.525,0.488,0.612,0.618,0.614
NCI-H2170,0.986,0.971,1.16,1.02,0.68,0.573,0.578,0.603,0.658,0.737,0.777,0.669,0.257,0.275,0.259,0.286,0.496,0.492,0.492,0.486
NCI-H2347,1.08,1.04,1.04,0.948,0.834,0.951,0.718,0.72,0.29,0.489,0.352,0.614,0.412,0.764,0.894,0.508,0.648,0.589,0.555,0.544
NCI-H2405,1.01,0.972,1.05,0.786,0.821,1.07,0.795,0.562,0.626,0.648,0.693,0.518,0.372,0.441,0.565,0.322,0.715,0.752,0.796,0.578
NCI-H3122,1,1,0.984,0.957,1.01,0.988,1.02,1.03,0.629,1.01,1.07,0.474,0.399,0.573,0.568,0.566,0.392,0.364,0.458,0.426
PC-3 [JPC-3],1.09,1.05,1.07,0.955,0.827,0.801,0.725,0.698,0.853,0.794,0.796,0.73,0.798,0.741,0.84,0.763,0.738,0.895,0.821,0.864
PC-14,1.12,0.971,1.04,0.755,0.93,1.02,1.16,0.848,0.8,0.848,1.08,0.397,0.771,0.661,0.734,0.656,0.215,0.191,0.205,0.151
RERF-LC-KJ,1.07,1,0.99,0.935,1.05,1.08,1.02,0.703,0.588,0.533,0.486,0.231,0.563,0.623,0.538,0.42,0.659,0.758,0.79,0.41
SK-LU-1,1.09,1.07,1.12,0.9,0.911,0.998,1.12,0.863,0.329,0.342,0.308,0.332,0.605,0.547,0.651,0.462,0.628,0.622,0.768,0.469
